Laboratory results published in article PMC8446442, “Crystal Structure of Mycobacterium tuberculosis Elongation Factor G1” (Frontiers in Molecular Biosciences, 2021).

What was measured:
[1] = target: T1, Mtb EF-G1 (Elongation factor G1) (Mycobacterium tuberculosis, UniProt P9WNM7); experiment: SPR (Biacore T200), […] steady-state affinity fit; type: binding; design: gene fusA; recombinant Mtb EF-G1 with a C-terminal His tag, immobilized on CM5 chip
[2] = target: T1, Mtb EF-G1 (Elongation factor G1); experiment: ITC at […] °C; crystal structure of the complex ([…] Å, SeMet SAD); type: binding; design: gene fusA; recombinant Mtb EF-G1 with a C-terminal His tag

T1 sequence (P9WNM7 whole entry): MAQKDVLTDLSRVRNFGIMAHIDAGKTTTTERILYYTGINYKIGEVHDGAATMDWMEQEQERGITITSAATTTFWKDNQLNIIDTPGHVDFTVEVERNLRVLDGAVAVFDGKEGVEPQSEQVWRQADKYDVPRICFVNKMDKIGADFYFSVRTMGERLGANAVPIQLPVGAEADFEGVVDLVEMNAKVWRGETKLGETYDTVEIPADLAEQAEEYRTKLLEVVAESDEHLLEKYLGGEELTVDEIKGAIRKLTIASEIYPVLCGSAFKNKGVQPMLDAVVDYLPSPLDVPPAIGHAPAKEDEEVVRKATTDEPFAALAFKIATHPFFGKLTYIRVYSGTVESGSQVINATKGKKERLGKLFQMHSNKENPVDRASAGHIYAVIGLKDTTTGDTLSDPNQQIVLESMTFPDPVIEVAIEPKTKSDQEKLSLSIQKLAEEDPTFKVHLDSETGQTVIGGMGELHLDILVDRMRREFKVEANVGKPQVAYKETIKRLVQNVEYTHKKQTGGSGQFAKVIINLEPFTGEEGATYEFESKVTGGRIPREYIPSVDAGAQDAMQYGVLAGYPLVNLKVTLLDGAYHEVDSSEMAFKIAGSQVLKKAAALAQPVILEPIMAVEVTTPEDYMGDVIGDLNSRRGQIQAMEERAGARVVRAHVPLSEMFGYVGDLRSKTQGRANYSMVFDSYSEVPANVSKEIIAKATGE

Structure (SMILES) | Kd [1] | Kd [2]
CC(=O)O[C@H]1C[C@@]2(C)[C@@H](C[C@@H](O)[C@H]3[C@@]4(C)CC[C@@H](O)[C@@H](C)[C@@H]4CC[C@@]32C)/C1=C(\CCC=C(C)C)C(=O)O [FA, Fusidic acid] | 3.54 µM | –
Nc1nc2c(ncn2[C@@H]2O[C@H](COP(=O)(O)OP(=O)(O)O)[C@@H](O)[C@H]2O)c(=O)[nH]1 [GDP] | – | 11.5 ± 0.3 µM
